Laboratory results reported in PMC7044277 (Nature Communications, 2020).
Where “and” joins values, the source holds several entries; their conditions need not be identical. Identical values can stand only once.

How the values were obtained:
[1] = system: serotonin receptor (subtype not given; reference agonist serotonin); experiment: β-arrestin2 recruitment (Tango), agonist activity, source data Fig_S10l; type: cell-based, human; conditions: drug alone
DRD2 (D2 long receptor) = DRD2 (D2 long receptor) (Homo sapiens, UniProt P14416); experiment: β-arrestin2 recruitment (Tango), HTLA cells; type: cell-based; conditions: for response, concentration-response data point (replicates): Fig_S10a, drug alone
Sequence of DRD2 (D2 long receptor) (P14416 whole entry): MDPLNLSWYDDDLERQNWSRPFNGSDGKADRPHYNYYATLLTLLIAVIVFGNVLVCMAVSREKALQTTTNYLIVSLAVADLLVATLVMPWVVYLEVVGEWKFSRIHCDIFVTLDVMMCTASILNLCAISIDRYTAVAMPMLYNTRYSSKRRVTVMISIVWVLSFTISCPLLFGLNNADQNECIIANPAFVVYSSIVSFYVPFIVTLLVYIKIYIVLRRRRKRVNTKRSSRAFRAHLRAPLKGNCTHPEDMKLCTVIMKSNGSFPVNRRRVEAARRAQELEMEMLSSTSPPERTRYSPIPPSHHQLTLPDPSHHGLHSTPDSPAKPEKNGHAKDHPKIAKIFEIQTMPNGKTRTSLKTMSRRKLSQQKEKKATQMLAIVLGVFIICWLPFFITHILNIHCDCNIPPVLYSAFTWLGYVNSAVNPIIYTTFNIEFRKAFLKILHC

DRD2 S1945.43G = target: T1, DRD2 S1945.43G (Homo sapiens, UniProt P14416, S194G); experiment: Gαi/o-mediated cAMP inhibition (GloSensor), mutant; type: cell-based; conditions: DRD2 Ser5.43Gly; G-protein assay
T1 construct: expressed in transfected cells; host or cells: HEK293T (ATCC CRL-11268)
T1 sequence (P14416 whole entry S194G): as the sequence (P14416 whole entry) above, with S194G counted along it

5HT1A = target: T2, 5HT1A (Homo sapiens, UniProt P08908); experiment: β-arrestin2 recruitment (Tango); type: cell-based; conditions: Fig_S10f, single replicates
T2 construct: expressed in transfected cells; host or cells: HTLA cells expressing TEV-fused β-arrestin2
T2 sequence (P08908 1-422): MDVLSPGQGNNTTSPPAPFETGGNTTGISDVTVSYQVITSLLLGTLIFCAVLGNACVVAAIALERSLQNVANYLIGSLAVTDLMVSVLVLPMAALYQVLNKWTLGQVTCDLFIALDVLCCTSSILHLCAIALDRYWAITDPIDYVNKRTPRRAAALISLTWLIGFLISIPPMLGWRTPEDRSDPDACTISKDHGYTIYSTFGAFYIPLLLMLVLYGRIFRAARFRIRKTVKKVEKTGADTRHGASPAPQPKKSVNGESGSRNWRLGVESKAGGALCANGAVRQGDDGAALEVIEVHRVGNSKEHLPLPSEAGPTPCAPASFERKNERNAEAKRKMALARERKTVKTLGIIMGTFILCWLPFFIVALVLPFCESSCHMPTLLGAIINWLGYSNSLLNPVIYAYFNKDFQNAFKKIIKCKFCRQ

CCOc1cccc2cc([C@@H](C)NCC3(O)CCCCC3)oc12 [O4RE6]
response, Fig_S10l, replicate values ([1]; Log[Drug] -6.52): -3.85
response, Fig_S10l, replicate values ([1]; Log[Drug] -7): -18.1455 and -1.053 and 5.44 and -6.097 and -0.7764 and -1.627 and 21.5386 and -8.446 and -23.0116
response, Fig_S10l, replicate values ([1]; Log[Drug] -7.52): 10.4314 and -7.0535 and -12.5511 and -5.4086 and -2.507 and -5.8801 and -14.9973 and 5.012 and -22.748
response, Fig_S10l, replicate values ([1]; Log[Drug] -8): -3.494 and -0.9897 and -1.101 and -6.133 and 9.37 and -6.103 and -6.764 and -19.0522 and -18.9699
response, Fig_S10l, replicate values ([1]; Log[Drug] -8.52): -14.6079 and -9.137 and 0.1161 and -2.858 and 0.4788 and -6.718 and 5.642 and 9.781 and -19.7014
response, Fig_S10l, replicate values ([1]; Log[Drug] -9): -7.429 and -0.8033 and 2.514 and -1.371 and -2.511 and 6.172 and -12.5406 and 13.3677 and 9.079
response, Fig_S10l, replicate values ([1]; Log[Drug] -9.52): -7.024 and -4.6241 and 4.382 and 5.183 and -6.777 and -3.91 and -13.0464 and 1.094 and -1.351
response, Fig_S10l, replicate values ([1]; Log[Drug] -10): -1.517 and -3.218 and -6.7099 and 1.544 and 10.647 and -1.892 and 3.1372 and 12.1979 and 15.1176
response, Fig_S10l, replicate values ([1]; Log[Drug] -10.52): 7.131 and -7.271 and -11.3727 and 2.195 and -7.95 and -8.5307 and 3.862 and 0.6607 and 18.5102
response, Fig_S10l, replicate values ([1]; Log[Drug] -11): 7.402 and 9.101 and -6.117 and -2.283 and 7.1162 and 16.1339 and -5.988 and 21.1185 and -1.691
response, Fig_S10l, replicate values ([1]; Log[Drug] -11.52): 20.0426 and 4.341 and -34.8779 and 9.958 and -2.256 and -5.643 and 0.02142 and 3.842 and -14.699
response, Fig_S10l, replicate values ([1]; Log[Drug] -12): 1.452 and 8.392 and -9.8386 and -3.912 and 6.115 and -2.202 and -0.8107 and 10.4431 and -9.6291
β-arrestin2 recruitment agonist activity (DRD2 (D2 long receptor); DRD2, Tango): full agonist
EC50 (DRD2 (D2 long receptor); DRD2, β-arrestin2 recruitment (Tango), read-out: EC50 ± SEM): 48.8 ± 9.47 nM
response, concentration-response data point (replicates) (DRD2 (D2 long receptor); Log[Drug] -5): 104.045 and 116.205 and 96.7104 and 116.434 and 93.993 and 105.729 and 95.4582 and 106.414 and 85.5052
response, concentration-response data point (replicates) (DRD2 (D2 long receptor); Log[Drug] -5.52): 89.1788 and 85.4445 and 90.8217 and 84.5796 and 80.0855 and 101.122 and 96.0613 and 81.9697 and 99.3385
response, concentration-response data point (replicates) (DRD2 (D2 long receptor); Log[Drug] -6): 82.8973 and 82.5495 and 79.2486 and 94.3704 and 78.2631 and 78.6908 and 80.3531 and 91.2175 and 73.5194
response, concentration-response data point (replicates) (DRD2 (D2 long receptor); Log[Drug] -6.52): 72.8482 and 85.473 and 74.6038 and 82.6009 and 103.942 and 82.378 and 70.1593 and 68.4699 and 74.397
response, concentration-response data point (replicates) (DRD2 (D2 long receptor); Log[Drug] -7): 71.4846 and 69.3009 and 62.1089 and 68.8602 and 55.9009 and 59.7861 and 54.6819 and 54.8285 and 54.3284
response, concentration-response data point (replicates) (DRD2 (D2 long receptor); Log[Drug] -7.52): 50.7715 and 50.9759 and 58.0792 and 57.6214 and 43.2407 and 45.9376 and 55.9749 and 62.7315 and 56.5853
response, concentration-response data point (replicates) (DRD2 (D2 long receptor); Log[Drug] -8): 39.7841 and 36.3747 and 29.4664 and 31.1292 and 29.8397 and 30.2988 and 27.2382 and 26.622 and 26.0732
response, concentration-response data point (replicates) (DRD2 (D2 long receptor); Log[Drug] -8.52): 13.2168 and 14.3867 and 13.161 and 13.9303 and 10.9069 and 10.856 and 10.5462 and 11.4912 and 11.2421
response, concentration-response data point (replicates) (DRD2 (D2 long receptor); Log[Drug] -9): 7.123 and 6.617 and 6.837 and 5.043 and 6.064 and 6.895 and 5.588 and 6.122 and 5.826
response, concentration-response data point (replicates) (DRD2 (D2 long receptor); Log[Drug] -11): 5.0524
response, concentration-response data point (replicates) (DRD2 (D2 long receptor); Log[Drug] -11.52): 4.975 and 5.004 and 4.993 and 4.845 and 4.81 and 4.615 and 4.945 and 4.7318 and 4.6555
response, concentration-response data point (replicates) (DRD2 (D2 long receptor); Log[Drug] -12): 4.9053 and 4.975 and 5.325 and 4.582 and 4.593 and 4.629 and 5.065 and 4.845 and 4.581
Emax (DRD2 (D2 long receptor); HTLA, read-out: Emax relative to quinpirole response, DRD2, Tango): 99.6%
β-arrestin2 recruitment response at DRD2 (source data, replicate values) (DRD2 (D2 long receptor); Log[Drug] -5): 73.5777 and 57.7969 and 60.7943 and 65.7822 and 71.9755 and 71.4753 and 62.0106
β-arrestin2 recruitment response at DRD2 (source data, replicate values) (DRD2 (D2 long receptor); Log[Drug] -5.52): 50.6787 and 47.7474 and 41.401 and 56.0167 and 52.8546 and 51.367 and 55.6817
β-arrestin2 recruitment response at DRD2 (source data, replicate values) (DRD2 (D2 long receptor); Log[Drug] -6): 39.3966 and 41.1099 and 37.2084 and 41.7585 and 38.5021 and 38.079 and 42.2149
β-arrestin2 recruitment response at DRD2 (source data, replicate values) (DRD2 (D2 long receptor); Log[Drug] -6.52): 17.548 and 17.9218 and 22.2395 and 30.2893 and 22.7451 and 19.4102 and 21.7916
β-arrestin2 recruitment response at DRD2 (source data, replicate values) (DRD2 (D2 long receptor); Log[Drug] -7): 9.564 and 7.739 and 7.708 and 7.415 and 7.649 and 7.113 and 9.501
β-arrestin2 recruitment response at DRD2 (source data, replicate values) (DRD2 (D2 long receptor); Log[Drug] -7.52): 5.75 and 5.841 and 5.282 and 5.619 and 6.782 and 5.749 and 5.8801
β-arrestin2 recruitment response at DRD2 (source data, replicate values) (DRD2 (D2 long receptor); Log[Drug] -8): 5.434 and 5.45 and 5.389 and 5.042 and 5.329 and 5.148 and 5.345
β-arrestin2 recruitment response at DRD2 (source data, replicate values) (DRD2 (D2 long receptor); Log[Drug] -8.52): 5.277 and 5.01 and 4.9419 and 4.98 and 5.0858 and 5.308 and 5.178
β-arrestin2 recruitment response at DRD2 (source data, replicate values) (DRD2 (D2 long receptor); Log[Drug] -9): 5.4097 and 5.385 and 5.128 and 4.863 and 4.947 and 4.805 and 4.8829
β-arrestin2 recruitment response at DRD2 (source data, replicate values) (DRD2 (D2 long receptor); Log[Drug] -9.52): 5.139 and 4.887 and 4.831 and 4.75 and 5.079 and 5.123 and 4.823
β-arrestin2 recruitment response at DRD2 (source data, replicate values) (DRD2 (D2 long receptor); Log[Drug] -10): 5.431 and 4.786 and 4.659 and 4.856 and 4.756 and 4.79 and 4.8682
β-arrestin2 recruitment response at DRD2 (source data, replicate values) (DRD2 (D2 long receptor); Log[Drug] -10.52): 5.022 and 4.798 and 4.776 and 4.763 and 4.86 and 4.945 and 4.841
β-arrestin2 recruitment response at DRD2 (source data, replicate values) (DRD2 (D2 long receptor); Log[Drug] -11): 4.915 and 4.765 and 4.615 and 4.7302 and 4.774 and 4.749 and 4.971
β-arrestin2 recruitment response at DRD2 (source data, replicate values) (DRD2 (D2 long receptor); Log[Drug] -11.52): 4.946 and 4.662 and 4.627 and 4.695 and 4.751 and 4.656 and 4.732
agonism after serine to glycine substitution (DRD2 S1945.43G): impaired
β-arrestin2 recruitment response, agonist mode (normalized) (5HT1A; Log[Drug] -9.52): -0.3383 and -0.3342 and -0.9983 and -0.221 and -0.03249 and 2.194 and -0.4129 and -0.6658 and 0.08323
β-arrestin2 recruitment response, agonist mode (normalized) (5HT1A; Log[Drug] -10): -0.1671 and -0.3383 and -0.5054 and -0.1386 and -0.3173 and 2.583 and 0.605 and 2.666 and 1.376
β-arrestin2 recruitment response, agonist mode (normalized) (5HT1A; Log[Drug] -10.52): 0 and 0.5013 and 0.1546 and 0.5578 and -0.1419 and 1.096 and 1.898 and -0.4417 and 0.06082
β-arrestin2 recruitment response, agonist mode (normalized) (5HT1A; Log[Drug] -11): -0.5138 and -0.6767 and 1.165 and 0.7257 and 0.3249 and 3.762 and 0.9795 and 5.224 and 0.4673
β-arrestin2 recruitment response, agonist mode (normalized) (5HT1A; Log[Drug] -11.52): 1.8254 and -0.1796 and 0.1546 and 0.208 and -0.007582 and -0.4495 and -0.8035 and 0.7362 and -0.4065
β-arrestin2 recruitment response, agonist mode (normalized) (5HT1A; Log[Drug] -12): -0.1713 and 0.3383 and -0.1671 and 0.2155 and 0.391 and -0.6055 and 0.7554 and -0.4001 and 0.1248
